This is an account of results in article PMC7825511, “Design Strategy for the EPR Tumor-Targeting of 1,2-Bis(sulfonyl)-1-alkylhydrazines” (Molecules, 2021).

Where only a bound is given, the exact number is not on record here.

System in the first data set: not listed separately
The data set is described as follows: Linker half-life determination by spectrophotometric proton release assay (spontaneous hydrolysis). In kind it is physicochemical. To be noted: buffer; 37 °C, pH 7.4; low molecular weight 90CE prodrugs with different N-2 substituents; read-out: Half-life (h) 37°C pH 7.4 (spontaneous hydrolysis) (converted). On the procedure: Linker half-life determination. The hydrolytic half-lives of several proposed linker moieties were determined using the proton release assay. The results are given in (Figure 4), several possible linkers with suitably long half-live values (40–300 h) were identified.
Decomposition kinetics. The kinetics of decomposition of various compounds and intermediates under various conditions can be followed using a spectrophotometric proton release assay. This is the preferred method for relatively short-lived agents as the decomposition can be followed in real time. This method is also suitable for following the decomposition of much longer-lived agents, as long as the reaction vessel/cuvette is sealed to prevent changes in pH due to CO2 absorption/desorption, and the temperature is closely controlled.
In the case of `CNC(=O)N(N(CCCl)S(C)(=O)=O)S(C)(=O)=O` [C], the half-life is 1.17 ± 0.02 h.

As to `CC(=O)N(N(CCCl)S(C)(=O)=O)S(C)(=O)=O` [A], the half-life is 42.9 ± 2.1 h.

`CC1CCC(C)N1C(=O)N(N(CCCl)S(C)(=O)=O)S(C)(=O)=O` (stereo not shown) [G]: the half-life was over 300 h.

Turning to `COC(=O)N(N(CCCl)S(C)(=O)=O)S(C)(=O)=O` [B], the half-life is over 300 h.

In the case of `CS(=O)(=O)N(CCCl)N(C(=O)N1CCOCC1)S(C)(=O)=O` [I], the half-life was over 300 h.

With `CS(=O)(=O)N(CCCl)N(C(=O)N1CCCCC1)S(C)(=O)=O` [H], the half-life is 16.2 ± 0.5 h.

With `CN(C)C(=O)N(N(CCCl)S(C)(=O)=O)S(C)(=O)=O` [D], the half-life was 129 ± 9 h.

In the case of `CCN(CC)C(=O)N(N(CCCl)S(C)(=O)=O)S(C)(=O)=O` [E], the half-life was 10.3 ± 0.3 h.

As for `CS(=O)(=O)N(CCCl)N(C(=O)N1CCCC1)S(C)(=O)=O` [F], the half-life was over 300 h.

A further data set relates to matching cell lines.
Test: not given
Particulars: cited from earlier work.
On to `CS(=O)(=O)NN(CCCl)S(C)(=O)=O` [90CE, 1,2-bis(methylsulfonyl)-1-(2-chloroethyl)hydrazine], for which the “MGMT level up to which protection towards the agent is proportional to MGMT activity” value is on record as ~ 10,000 MGMT molecules/cell.

The data set is the same for the next values; noted with them: same matching cell lines with/without MGMT expression; cited from earlier work.
As for `CS(=O)(=O)NN(CCCl)S(C)(=O)=O` [90CE, 1,2-bis(methylsulfonyl)-1-(2-chloroethyl)hydrazine], the “increase in the IC50 value resulting from MGMT expression” value was ~ 20 fold.

For the compound `O=NN(CCCl)C(=O)NCCCl` [bis-chloroethylnitrosourea (BCNU), bis-chloroethylnitrosourea], the “increase in the IC50 value resulting from MGMT expression” value is 2 to 3 fold.

Another data set deals with O-6 position of DNA guanine.
Test: not given
Further details: method as in PMID 20654586. To be noted: relative to chloroethylating counterpart 90CE; cited from earlier work.
Consider `CN(NS(C)(=O)=O)S(C)(=O)=O` [KS90, 1,2-bis(methylsulfonyl)-1-(methyl)hydrazine], for which the “molar yield of guanine O-6 alkylations relative to 90CE” value was 5–6 times.

As usually defined, the half-life is how long it takes for the measured level to halve.
